# In patent US20050164951A1, “Inhibitors for the soluble epoxide hydrolase” (The Regents of the University of California, priority 2003, published 2005):
# Like-named read-outs stand apart in the source and are kept apart here.
# Legend:
# rat sEH = target: T1, rat sEH (Rattus norvegicus, UniProt P80299); experiment: Relative turnover of arachidonic acid epoxides by rat sEH; format: biochemical; conditions: for Relative EET Turnover: Table 20, arachidonic acid epoxides with the rat sEH; for relative substrate turnover of the epoxy arachidonates: 1:1:2 mixture of 8,9-, 11,12-, and 14,15-EET hydrolyzed to 30% by rat renal cortex cytosol
# T1 construct: was hydrolyzed to 30% by rat renal cortex cytosol; from tissue; host or cells: rat renal cortex cytosol
# T1 sequence (P80299 1-554): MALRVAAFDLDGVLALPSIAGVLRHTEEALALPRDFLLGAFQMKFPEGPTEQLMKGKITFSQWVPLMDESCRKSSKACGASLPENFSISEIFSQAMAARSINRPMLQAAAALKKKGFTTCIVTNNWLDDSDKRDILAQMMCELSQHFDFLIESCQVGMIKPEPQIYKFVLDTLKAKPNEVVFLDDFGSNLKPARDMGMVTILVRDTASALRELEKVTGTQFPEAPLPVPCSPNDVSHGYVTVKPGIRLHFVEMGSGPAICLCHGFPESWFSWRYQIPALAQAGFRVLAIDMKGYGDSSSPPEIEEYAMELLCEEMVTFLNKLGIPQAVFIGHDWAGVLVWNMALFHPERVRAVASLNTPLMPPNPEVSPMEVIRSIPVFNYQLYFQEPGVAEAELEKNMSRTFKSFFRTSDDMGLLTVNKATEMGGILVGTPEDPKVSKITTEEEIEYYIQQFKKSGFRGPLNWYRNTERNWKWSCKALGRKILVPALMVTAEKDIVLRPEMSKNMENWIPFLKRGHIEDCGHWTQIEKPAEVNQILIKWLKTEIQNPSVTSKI
# Description: For epoxy fatty acid hydrolysis, the soluble epoxide hydrolase prefers substrates with epoxide moieties that are more distant from the carboxyl terminal. Specifically the substrate preference decreases in the order of 14,15-EET >11,12-EET >8,9-EET >>>5,6-EET for the epoxides of arachidonic acid. Independently, the relative substrate turnover of the epoxy arachidonates were calculated at 0.1:8.1:14.3 when a 1:1:2 mixture of 8,9-, 11,12-, and 14,15-EET fatty acid was hydrolyzed to 30% by rat renal cortex cytosol. By considering the primary pharmacophore of the urea to be a transition-state analog of epoxide hydrolysis, preferred inhibitors have now been developed which incorporate long aliphatic acids. These compounds are better substrate and transition state mimics than those incorporating shorter aliphatic acids. Accordingly, optimal soluble epoxide hydrolase inhibitors can be obtained by producing compounds with aliphatic acid substituents (i.e. a tertiary pharmacophore) which are separated from the primary pharmacophore by an equivalent distance as the terminal acid is separated from the epoxide in optimal substrates. Within the enzyme active site, epoxy fatty acids have been predicted to exist in an extended or pseudo-linear confirmation. Therefore, both the epoxy fatty acids and the aliphatic acid containing urea structures were approximated as two dimensional linear representations and measurements were made on each species. The critical measurements taken were distances (in angstroms) from the carboxylate hydroxyl to the urea carbonyl and the urea nitrogens.
# mouse sEH = target: T2, mouse sEH (Mus musculus, UniProt P34914); experiment: Inhibition of recombinant mouse sEH, IC50 assay with 4-nitrophenyl-trans-2,3-epoxy-3-phenylpropyl carbonate as substrate; format: biochemical; conditions: read-out: IC50 (μM) Mouse sEH
# T2 construct: made in house; host or cells: baculovirus expression system
# T2 sequence (P34914 1-554): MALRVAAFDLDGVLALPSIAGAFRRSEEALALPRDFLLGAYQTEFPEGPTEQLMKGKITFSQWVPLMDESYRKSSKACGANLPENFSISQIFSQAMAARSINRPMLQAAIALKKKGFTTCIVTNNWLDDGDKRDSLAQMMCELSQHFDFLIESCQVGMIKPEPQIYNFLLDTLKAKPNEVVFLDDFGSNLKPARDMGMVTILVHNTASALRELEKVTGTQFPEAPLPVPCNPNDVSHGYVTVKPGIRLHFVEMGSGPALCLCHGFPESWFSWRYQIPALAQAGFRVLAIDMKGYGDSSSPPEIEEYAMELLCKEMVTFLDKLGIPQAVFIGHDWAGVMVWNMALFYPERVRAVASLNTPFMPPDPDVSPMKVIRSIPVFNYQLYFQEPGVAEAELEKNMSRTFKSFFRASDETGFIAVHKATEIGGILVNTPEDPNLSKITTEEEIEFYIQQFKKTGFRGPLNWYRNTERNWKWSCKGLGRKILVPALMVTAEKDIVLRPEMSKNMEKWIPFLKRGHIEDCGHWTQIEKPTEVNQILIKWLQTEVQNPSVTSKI
# Description: (§1) Assays were performed in triplicate. […] The curve was generated from at least three separate runs, each in triplicate, to obtain the standard deviation (SD) given in Table 1 thru Table 4.
# mouse and human sEH = experiment: sEH IC50 assay, comparisons of the text made for both enzymes or without naming the enzyme; format: biochemical
# Description: as §1
# human sEH = target: T3, human sEH (Homo sapiens, UniProt P34913); experiment: Inhibition of recombinant human sEH, IC50 assay with 4-nitrophenyl-trans-2,3-epoxy-3-phenylpropyl carbonate as substrate; format: biochemical
# T3 construct: made in house; host or cells: baculovirus expression system
# T3 sequence (P34913 1-555): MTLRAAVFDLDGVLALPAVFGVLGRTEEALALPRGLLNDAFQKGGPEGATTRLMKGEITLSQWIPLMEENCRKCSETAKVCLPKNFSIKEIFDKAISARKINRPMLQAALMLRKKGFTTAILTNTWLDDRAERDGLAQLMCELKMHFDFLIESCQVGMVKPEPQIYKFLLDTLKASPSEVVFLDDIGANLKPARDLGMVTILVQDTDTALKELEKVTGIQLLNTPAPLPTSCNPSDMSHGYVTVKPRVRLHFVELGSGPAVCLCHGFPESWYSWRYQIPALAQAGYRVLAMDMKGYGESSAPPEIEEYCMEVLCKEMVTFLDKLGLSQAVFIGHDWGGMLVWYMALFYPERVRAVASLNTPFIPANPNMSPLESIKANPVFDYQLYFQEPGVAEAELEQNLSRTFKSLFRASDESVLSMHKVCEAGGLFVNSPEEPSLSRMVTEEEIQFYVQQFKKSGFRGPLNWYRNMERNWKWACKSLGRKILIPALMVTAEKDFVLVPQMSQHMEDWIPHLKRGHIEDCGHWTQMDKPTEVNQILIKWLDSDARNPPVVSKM
# Description: as §1
# Water solubility = format: physicochemical; conditions: for water solubility: compared with non-functionalized lipophilic inhibitors (791, 790)
# [1] = Blood concentration after oral administration of 950 and AUDA-nBE, human pharmacokinetic profile; format: in vivo; conditions: for pharmacokinetics: see FIGS. 15-27
# Description: FIG. 16 provides a sample preparation procedure for a pharmacokinetic study. A 5 μl whole blood sample was drawn into a capillary at a specific time point, each sample was extracted and anaylzed by LC/MS-MS. […] AUDA is the active metabolite of AUDA-nBE. […] 0.05 mg/kg. (B). 0.1 mg/kg. […] The compounds were administered at the same time in the same formulation. […] 21 mg (0.3 mg/kg) 950 and AUDA-nBE were orally administrated with starch. (B). 7 mg (0.1 mg/kg) formulated 950 and AUDA-NBE were taken with (HPMC, starch and lactose). (C). […] 950 with HPMC and Starch. (B). 950 in lactose and HPMC. […] HPMC forms a gel which slowly erodes; lactose enhances erosion at it moves through the gut and starch retards it. These formulations are combined, ball milled, and then placed in ‘0’ capsule and not compressed.
# [2] = Table 2, […] enzyme, 5 min preincubation, pH 7.4, 30° C., means ± SD
# [3] = Table 2, […] enzyme, 5 min preincubation, pH 7.4, 30° C., means ± SD, read-out: IC50 (μM) Human sEH
# [4] = Table 7, established protocols, read-out: IC50 (μM) Human sEH
# [5] = Tables 17a and b, read-out: IC50 (μM) Human sEH
# [6] = Table 8, established protocols, read-out: IC50 (μM) Human sEH
smiles,measurement,setting,value
"CCCCC/C=C\C/C=C\C/C=C\CC1OC1CCCC(=O)O (stereo not shown) [5,6-EET]",Relative EET Turnover,rat sEH,0.1
"CCCCC/C=C\C/C=C\CC1OC1C/C=C\CCCC(=O)O (stereo not shown) [8,9-EET]",relative substrate turnover of the epoxy arachidonates,rat sEH,0.1
same,Relative EET Turnover,rat sEH,1
"CCCCC/C=C\C[C@H]1O[C@H]1C/C=C\C/C=C\CCCC(=O)O [11,12-EET]",relative substrate turnover of the epoxy arachidonates,rat sEH,8.1
same,Relative EET Turnover,rat sEH,8.1
"CCCCCC1OC1C/C=C\C/C=C\C/C=C\CCCC(=O)O (stereo not shown) [14,15-EET]",relative substrate turnover of the epoxy arachidonates,rat sEH,14.3
same,Relative EET Turnover,rat sEH,14.3
"CCCCCOC(=O)CCCNC(=O)Nc1cccc(Cl)c1 [Compound 767, 1-(3-chlorophenyl)-3-(3-pentoxycarbonylpropyl)urea]",IC50,"mouse sEH; Table 3, […] enzyme, 5 min preincubation, pH 7.4, 30° C., means ± SD",0.37 ± 0.04 µM
same,better inhibition than 761,mouse and human sEH; methylene carbon left versus right of the carbonyl,20 fold
same,IC50,"human sEH; Table 3, […] enzyme, 5 min preincubation, pH 7.4, 30° C., means ± SD, read-out: IC50 (μM) Human sEH",2.1 ± 0.07 µM
"CCCCCOC(=O)CCCNC(=O)NC1CCCCC1 [Compound 772, 1-Cyclohexyl-3-(3-pentoxycarbonylpropyl)urea]",IC50,mouse sEH; [2],0.05 ± 0.01 µM
same,water solubility,Water solubility,increases their water solubility
same,increase of inhibitor potency over the 3-chlorophenyl analog (767),mouse and human sEH,10 fold
same,IC50,human sEH; [3],1.02 ± 0.05 µM
COC(=O)CCCNC(=O)NC1CCCCC1 [Compound 774],IC50,"mouse sEH; Table 1, 0.12 μM enzyme, 5 min preincubation, pH 7.4, 30° C., [S] = 40 μM, means ± SD of three experiments",0.33 ± 0.03 µM
same,fold higher activity than the esters of acetic and propanoic acids (549 and 635),mouse and human sEH; for both enzymes,8-100 fold
same,IC50,human sEH,6.2 ± 0.5 µM
"CCCCCCCCCCNC(=O)NC12CC3CC(CC(C3)C1)C2 [Compound 790, reference compound]",IC50,mouse sEH; [2],0.05 ± 0.01 µM
same,solubility relative to the corresponding cyclohexyl derivative,"Water solubility; 772 vs. 789, 791 vs. 790, 297 vs. 686",approximately 2 x
same,IC50,human sEH; [3],0.1 ± 0.01 µM
COCCOCCCCCNC(=O)NC12CC3CC(CC(C3)C1)C2 [Compound 908],IC50,"mouse sEH; Table 7, established protocols",0.05 ± 0.01 µM
same,pharmacokinetics,[1],improved pharmacokinetics
same,water solubility,Water solubility,increased water solubility
same,IC50,human sEH; [4],0.16 ± 0.01 µM
COCCOCCOCCOCCCCCNC(=O)NC12CC3CC(CC(C3)C1)C2 [Compound 952],pharmacokinetics,[1],improved pharmacokinetics
CCCC(C)COCCCCCNC(=O)NC12CC3CC(CC(C3)C1)C2 (stereo not shown) [Compound 955],detection in blood,"[1]; FIG. 27, after oral 950",not detected at any time point
CCCC(C)COCCOCCOCCCCCNC(=O)NC12CC3CC(CC(C3)C1)C2 (stereo not shown) [Compound 1003],IC50,"mouse sEH; Table 7, established protocols",0.05 ± 0.01 µM
same,IC50,mouse sEH; Tables 17a and b,0.05 ± 0.01 µM
same,IC50,human sEH; [4],0.13 ± 0.01 µM
same,IC50,human sEH; [5],0.13 ± 0.01 µM
O=C(NCCCCCOCCCCCOCC(F)(F)F)NC12CC3CC(CC(C3)C1)C2 [Compound 1004],IC50,"mouse sEH; Table 7, established protocols",0.05 ± 0.01 µM
same,IC50,mouse sEH; Tables 17a and b,0.05 ± 0.01 µM
same,IC50,human sEH; [4],0.13 ± 0.01 µM
same,IC50,human sEH; [5],0.16 ± 0.01 µM
CCOC(=O)CCCCCCOCCCCCNC(=O)NC12CC3CC(CC(C3)C1)C2 [Compound 1006],IC50,"mouse sEH; Table 7, established protocols",0.05 ± 0.01 µM
same,IC50,mouse sEH; Tables 17a and b,0.05 ± 0.01 µM
same,IC50,human sEH; [4],0.11 ± 0.01 µM
same,IC50,human sEH; [5],0.11 ± 0.01 µM
O=C(CCCNC(=O)NC12CC3CC(CC(C3)C1)C2)NC(C(=O)N1CCCC1C(=O)O)c1c[nH]cn1 (stereo not shown) [Compound 1012],IC50,mouse sEH; Tables 17a and b,0.09 ± 0.01 µM
same,IC50,human sEH; [5],100 ± 0.01 µM
CSC(NC(=O)C(NC(=O)CCCNC(=O)NC12CC3CC(CC(C3)C1)C2)c1c[nH]cn1)C(=O)O (stereo not shown) [Compound 1013],IC50,mouse sEH; Tables 17a and b,0.05 ± 0.01 µM
same,IC50,human sEH; [5],1.5 ± 0.01 µM
CCOC(=O)c1ccc(C(C#N)OC(=O)C2CCCC(NC(=O)NC34CC5CC(CC(C5)C3)C4)C2)cc1 (stereo not shown) [Compound 1014],IC50,"mouse sEH; Table 9, established protocols",0.05 ± 0.01 µM
same,IC50,"human sEH; Table 9, established protocols, read-out: IC50 (μM) Human sEH",0.14 ± 0.01 µM
O=C(NN1CCOCC1)NC12CC3CC(CC(C3)C1)C2 [Compound 1015],IC50,mouse sEH; Tables 17a and b,1.3 ± 0.01 µM
same,IC50,human sEH; [5],8.7 ± 0.01 µM
O=C(NCCCN1CCOCC1)NC12CC3CC(CC(C3)C1)C2 [Compound 1016],IC50,mouse sEH; Tables 17a and b,0.05 ± 0.01 µM
same,IC50,human sEH; [5],6 ± 0.01 µM
CCCCCOC(=O)CCCNC(=O)CC12CC3CC(CC(C3)C1)C2 [Compound 1017],IC50,"mouse sEH; Table 8, established protocols",0.05 ± 0.01 µM
same,IC50,human sEH; [6],0.43 ± 0.02 µM
CCCCCCCCCCNC(=O)CC12CC3CC(CC(C3)C1)C2 [Compound 1018],IC50,"mouse sEH; Table 8, established protocols",0.05 ± 0.01 µM
same,IC50,human sEH; [6],0.1 ± 0.01 µM
